Drawing on patent publication US20240025884A1 (Dong-A ST Co., Ltd., priority 2022, published 2024), this text covers IC50 for 25 molecules.

This experiment addresses GCN2 (Homo sapiens (Human), UniProt Q9P2K8). As to the kind of experiment: GCN2 Biochemical Assay (TR-FRET, GFP-eIF2S1 substrate phosphorylation). The note with it: read-out: IC50 (GCN2 Inhibitory Activity). A digest of the protocol: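 In-house GCN2 (1.6 nM 2× stock) phosphorylates GFP-eIF2S1 (50 nM 2× stock) with ATP (0.2 mM 2× stock) and tRNA, pH 7.5, 70 min at room temperature; 10-point 3.16-fold compound series. TR-FRET detection with Tb-anti-phospho antibody, 2–3 h, Ex 340/Em 490/520 nm; artifact plate spiked with phospho-substrate.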
In general terms: In TR-FRET formats the signal depends on donor and acceptor labels being close together.

A word on the IC50: it is the concentration that gives 50% inhibition.

Structures are written as SMILES.

GCN2, sequence (Q9P2K8 whole entry): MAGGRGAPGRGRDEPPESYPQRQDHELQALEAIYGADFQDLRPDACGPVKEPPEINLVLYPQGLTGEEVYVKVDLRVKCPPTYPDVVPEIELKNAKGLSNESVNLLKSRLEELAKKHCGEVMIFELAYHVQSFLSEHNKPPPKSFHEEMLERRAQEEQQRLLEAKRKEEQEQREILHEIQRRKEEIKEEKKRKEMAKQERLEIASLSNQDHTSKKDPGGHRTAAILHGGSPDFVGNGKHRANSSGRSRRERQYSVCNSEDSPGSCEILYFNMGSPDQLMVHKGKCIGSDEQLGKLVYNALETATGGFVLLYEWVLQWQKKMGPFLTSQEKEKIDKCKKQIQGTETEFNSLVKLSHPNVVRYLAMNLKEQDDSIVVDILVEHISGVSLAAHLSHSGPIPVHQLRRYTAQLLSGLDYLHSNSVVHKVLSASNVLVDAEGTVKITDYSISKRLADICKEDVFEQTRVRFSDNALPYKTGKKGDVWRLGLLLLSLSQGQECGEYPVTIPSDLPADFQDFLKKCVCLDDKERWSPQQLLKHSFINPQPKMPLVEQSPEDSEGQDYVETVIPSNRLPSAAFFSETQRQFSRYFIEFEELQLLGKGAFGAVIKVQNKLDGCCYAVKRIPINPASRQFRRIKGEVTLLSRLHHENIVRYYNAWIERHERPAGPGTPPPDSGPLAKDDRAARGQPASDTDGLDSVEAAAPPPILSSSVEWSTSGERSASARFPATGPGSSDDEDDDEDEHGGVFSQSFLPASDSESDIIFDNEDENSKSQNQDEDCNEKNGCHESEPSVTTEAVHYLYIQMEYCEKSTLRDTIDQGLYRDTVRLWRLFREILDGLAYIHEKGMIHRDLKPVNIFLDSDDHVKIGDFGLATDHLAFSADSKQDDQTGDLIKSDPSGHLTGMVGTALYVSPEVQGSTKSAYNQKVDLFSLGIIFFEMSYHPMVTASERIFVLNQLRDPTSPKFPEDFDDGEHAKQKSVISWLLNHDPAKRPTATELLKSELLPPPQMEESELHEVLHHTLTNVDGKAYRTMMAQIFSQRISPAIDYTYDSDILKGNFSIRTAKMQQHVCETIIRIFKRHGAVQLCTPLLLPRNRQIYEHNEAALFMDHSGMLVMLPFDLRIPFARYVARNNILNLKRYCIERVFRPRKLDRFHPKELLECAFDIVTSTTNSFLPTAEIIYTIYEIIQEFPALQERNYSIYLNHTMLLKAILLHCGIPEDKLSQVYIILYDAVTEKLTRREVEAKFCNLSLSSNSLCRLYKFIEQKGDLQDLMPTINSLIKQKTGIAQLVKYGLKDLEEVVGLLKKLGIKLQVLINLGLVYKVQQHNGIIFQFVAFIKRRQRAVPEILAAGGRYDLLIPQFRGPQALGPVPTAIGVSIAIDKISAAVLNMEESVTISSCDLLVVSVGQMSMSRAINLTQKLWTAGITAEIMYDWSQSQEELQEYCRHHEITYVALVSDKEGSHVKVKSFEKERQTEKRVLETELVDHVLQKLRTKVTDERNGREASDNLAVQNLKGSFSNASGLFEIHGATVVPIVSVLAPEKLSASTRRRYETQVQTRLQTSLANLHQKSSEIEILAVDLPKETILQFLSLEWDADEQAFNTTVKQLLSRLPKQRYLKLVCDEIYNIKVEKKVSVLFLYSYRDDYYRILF

As to `Cc1cnc(Nc2cc(C)n(C)n2)nc1-c1c[nH]c2c(NC(=O)CN3CC[C@H](Oc4ccnc(NC5CC5)n4)C3=O)cccc12` [Example 60, (S)-2-(3-((2-(cyclopropylamino)pyrimidin-4-yl)oxy)-2-oxopyrrolidin-1-yl)-N-(3-(2-((1,5-dimethyl-1H-pyrazol-3-yl)amino)-5-methylpyrimidin-4-yl)-1H-indol-7-yl)acetamide], the IC50 lay in the range of 0.01 to 0.1 µM.

Regarding `Cc1cnc(Nc2cc(C)n(C)n2)nc1-c1c[nH]c2c(N3Cc4ccccc4C3=O)cccc12` [Example 267, 2-(3-(2-((1,5-dimethyl-1H-pyrazol-3-yl)amino)-5-methylpyrimidin-4-yl)-1H-indol-7-yl)isoindolin-1-one], the half-inhibitory concentration (IC50) fell in the range of 0.01 to 0.1 µM.

Take `CCN(CC)C(=O)/C=C/c1cccc2c1CN(c1cccc3c(-c4nc(Nc5cc(C)n(C)n5)ncc4C)c[nH]c13)C2=O` [Example 368, (E)-3-(2-(3-(2-((1,5-dimethyl-1H-pyrazol-3-yl)amino)-5-methylpyrimidin-4-yl)-1H-indol-7-yl)-1-oxoisoindolin-4-yl)-N,N-diethylacrylamide]: the IC50 was less than 0.01 µM.

For the molecule `Cc1cnc(Nc2cc(C)n(C)n2)nc1-c1c[nH]c2c(NC(=O)CN3CC[C@H](Oc4ccsc4C(=O)O)C3)cccc12` [Example 108, (S)-3-((1-(2-((3-(2-((1,5-dimethyl-1H-pyrazol-3-yl)amino)-5-methylpyrimidin-4-yl)-1H-indol-7-yl)amino)-2-oxoethyl)pyrrolidin-3-yl)oxy)thiophene-2-carboxylic acid], the IC50 is less than 0.01 µM.

`Cc1cnc(Nc2cc(C)n(C)n2)nc1-c1c[nH]c2c(NC(=O)CN3CC[C@H](Oc4ccnc(NCC(C)(F)F)n4)C3)cccc12` [Example 199, (S)-2-(3-((2-((2,2-difluoropropyl)amino)pyrimidin-4-yl)oxy)pyrrolidin-1-yl)-N-(3-(2-((1,5-dimethyl-1H-pyrazol-3-yl)amino)-5-methylpyrimidin-4-yl)-1H-indol-7-yl)acetamide]: the IC50 was less than 0.01 µM.

As for `Cc1cnccc1-c1cccc2c1CN(c1cccc3c(-c4nc(Nc5cc(C)n(C)n5)ncc4C)c[nH]c13)C2=O` [Example 455, 2-(3-(2-((1,5-dimethyl-1H-pyrazol-3-yl)amino)-5-methylpyrimidin-4-yl)-1H-indol-7-yl)-4-(3-methylpyridin-4-yl)isoindolin-1-one], the IC50 was less than 0.01 µM.

`Cc1cscc1-c1cccc2c1CN(c1cccc3c(-c4nc(Nc5cc(C)n(C)n5)ncc4C)c[nH]c13)C2=O` [Example 453, 2-(3-(2-((1,5-dimethyl-1H-pyrazol-3-yl)amino)-5-methylpyrimidin-4-yl)-1H-indol-7-yl)-4-(4-methylthiophen-3-yl)isoindolin-1-one]: the half-maximal inhibitory concentration (IC50) fell in the range of 0.01 to 0.1 µM.

With `Cc1cnc(Nc2cc(C)n(C)n2)nc1-c1c[nH]c2c(N3Cc4c(NC(=O)c5ccoc5)cccc4C3=O)cccc12` [Example 338, N-(2-(3-(2-((1,5-dimethyl-1H-pyrazol-3-yl)amino)-5-methylpyrimidin-4-yl)-1H-indol-7-yl)-1-oxoisoindolin-4-yl)furan-3-carboxamide], the IC50 was 0.01 to 0.1 µM.

`COc1cc(O[C@H]2CCN(CC(=O)Nc3cccc4c(-c5nc(Nc6cc(C)n(C)n6)ncc5C)c[nH]c34)C2)nc(NC2CC2)n1` [Example 238, (S)-2-(3-((2-(cyclopropylamino)-6-methoxypyrimidin-4-yl)oxy)pyrrolidin-1-yl)-N-(3-(2-((1,5-dimethyl-1H-pyrazol-3-yl)amino)-5-methylpyrimidin-4-yl)-1H-indol-7-yl)acetamide]: the IC50 is less than 0.01 µM.

Turning to `Cc1cnc(Nc2cc(C)n(C)n2)nc1-c1c[nH]c2c(NC(=O)CN3CC[C@H](Oc4ccsc4C(=O)NC4CC4)C3)cccc12` [Example 111, (S)-N-cyclopropyl-3-((1-(2-((3-(2-((1,5-dimethyl-1H-pyrazol-3-yl)amino)-5-methylpyrimidin-4-yl)-1H-indol-7-yl)amino)-2-oxoethyl)pyrrolidin-3-yl)oxy)thiophene-2-carboxamide], the IC50 is less than 0.01 µM.

Turning to `Cc1cnc(Nc2cc(C)n(C)n2)nc1-c1c[nH]c2c(N3Cc4c(Br)cncc4C3=O)cccc12` [Example 289, 7-bromo-2-(3-(2-((1,5-dimethyl-1H-pyrazol-3-yl)amino)-5-methylpyrimidin-4-yl)-1H-indol-7-yl)-1,2-dihydro-3H-pyrrolo[3,4-c]pyridin-3-one], the half-inhibitory concentration (IC50) was less than 0.01 µM.

For `Cc1cnc(Nc2cc(C)n(C)n2)nc1-c1c[nH]c2c(N3Cc4cccnc4C3=O)cccc12` [Example 288, 6-(3-(2-((1,5-dimethyl-1H-pyrazol-3-yl)amino)-5-methylpyrimidin-4-yl)-1H-indol-7-yl)-5,6-dihydro-7H-pyrrolo[3,4-b]pyridin-7-one], the 50% inhibitory concentration (IC50) was less than 0.01 µM.

With `Cc1cnc(Nc2cc(C)n(C)n2)nc1-c1c[nH]c2c(N3Cc4c(/C=C/C(=O)NC(C)(C)C)cccc4C3=O)cccc12` [Example 371, (E)-N-(tert-butyl)-3-(2-(3-(2-((1,5-dimethyl-1H-pyrazol-3-yl)amino)-5-methylpyrimidin-4-yl)-1H-indol-7-yl)-1-oxoisoindolin-4-yl)acrylamide], the IC50 is less than 0.01 µM.

Turning to `Cc1cnc(Nc2cc(C)n(C)n2)nc1-c1c[nH]c2c(NC(=O)CN3CC[C@H](Oc4ncc(F)c(N(C)C)n4)C3)cccc12` [Example 181, (S)-N-(3-(2-((1,5-dimethyl-1H-pyrazol-3-yl)amino)-5-methylpyrimidin-4-yl)-1H-indol-7-yl)-2-(3-((4-(dimethylamino)-5-fluoropyrimidin-2-yl)oxy)pyrrolidin-1-yl)acetamide], the 50% inhibitory concentration (IC50) is less than 0.01 µM.

Take `CCNc1cncc(O[C@H]2CCN(CC(=O)Nc3cccc4c(-c5nc(Nc6cc(C)n(C)n6)ncc5C)c[nH]c34)C2)n1` [Example 244, (S)-N-(3-(2-((1,5-dimethyl-1H-pyrazol-3-yl)amino)-5-methylpyrimidin-4-yl)-1H-indol-7-yl)-2-(3-((6-(ethylamino)pyrazin-2-yl)oxy)pyrrolidin-1-yl)acetamide]: the IC50 was in the range of 0.01 to 0.1 µM.

Take `Cc1cnc(Nc2cc(C)n(C)n2)nc1-c1c[nH]c2c(N3Cc4cccc(Cl)c4C3=O)cccc12` [Example 273, 7-chloro-2-(3-(2-((1,5-dimethyl-1H-pyrazol-3-yl)amino)-5-methylpyrimidin-4-yl)-1H-indol-7-yl)isoindolin-1-one]: the half-inhibitory concentration (IC50) is less than 0.01 µM.

With `Cc1cnc(Nc2cc(C)n(C)n2)nc1-c1c[nH]c2c(NC(=O)CN3CC[C@H](Oc4cc(N5CC[C@H](O)C5)ncn4)C3)cccc12` [Example 161, N-(3-(2-((1,5-dimethyl-1H-pyrazol-3-yl)amino)-5-methylpyrimidin-4-yl)-1H-indol-7-yl)-2-((S)-3-((6-((S)-3-hydroxypyrrolidin-1-yl)pyrimidin-4-yl)oxy)pyrrolidin-1-yl)acetamide], the half-maximal inhibitory concentration (IC50) is less than 0.01 µM.

Consider `CNc1nc(O[C@H]2CCN(CC(=O)Nc3cccc4c(-c5nc(Nc6cc(C)n(C)n6)ncc5C)c[nH]c34)C2)ncc1F` [Example 177, (S)-N-(3-(2-((1,5-dimethyl-1H-pyrazol-3-yl)amino)-5-methylpyrimidin-4-yl)-1H-indol-7-yl)-2-(3-((5-fluoro-4-(methylamino)pyrimidin-2-yl)oxy)pyrrolidin-1-yl)acetamide], for which the IC50 is less than 0.01 µM.

Consider `Cc1cnc(Nc2cc(C)n(C)n2)nc1-c1c[nH]c2c(N3Cc4c(cccc4-c4ccc5c(cnn5C)c4)C3=O)cccc12` [Example 449, 2-(3-(2-((1,5-dimethyl-1H-pyrazol-3-yl)amino)-5-methylpyrimidin-4-yl)-1H-indol-7-yl)-4-(i-methyl-1H-indazol-5-yl)isoindolin-1-one], for which the half-maximal inhibitory concentration (IC50) fell in the range of 0.01 to 0.1 µM.

Consider `Cc1cnc(Nc2cc(C)n(C)n2)nc1-c1c[nH]c2c(NC(=O)CN3C[C@@H](F)[C@@H](Oc4ccnc(NC5CC5)n4)C3)cccc12` [Example 54, 2-((3S,4R)-3-((2-(cyclopropylamino)pyrimidin-4-yl)oxy)-4-fluoropyrrolidin-1-yl)-N-(3-(2-((1,5-dimethyl-1H-pyrazol-3-yl)amino)-5-methylpyrimidin-4-yl)-1H-indol-7-yl)acetamide], for which the IC50 lay within 0.01 to 0.1 µM.

For the molecule `Cc1cnc(Nc2cc(C)n(C)n2)nc1-c1c[nH]c2c(NC(=O)CN3CC(C(=O)O)C3)cccc12` [Example 32, 1-(2-((3-(2-((1,5-dimethyl-1H-pyrazol-3-yl)amino)-5-methylpyrimidin-4-yl)-1H-indol-7-yl)amino)-2-oxoethyl)azetidine-3-carboxylic acid], the IC50 was in the range of 0.01 to 0.1 µM.

Turning to `Cc1cnc(Nc2cc(C)n(C)n2)nc1-c1c[nH]c2c(N3Cc4c(cccc4N4CCOCC4)C3=O)cccc12` [Example 352, 2-(3-(2-((1,5-dimethyl-1H-pyrazol-3-yl)amino)-5-methylpyrimidin-4-yl)-1H-indol-7-yl)-4-morpholinoisoindolin-1-one], the 50% inhibitory concentration (IC50) was less than 0.01 µM.

Turning to `Cc1cnc(Nc2cc(C)n(C)n2)nc1-c1c[nH]c2c(N3Cc4c(cccc4C4=CCN(S(C)(=O)=O)CC4)C3=O)cccc12` [Example 465, 2-(3-(2-((1,5-dimethyl-1H-pyrazol-3-yl)amino)-5-methylpyrimidin-4-yl)-1H-indol-7-yl)-4-(1-(methylsulfonyl)-1,2,3,6-tetrahydropyridin-4-yl)isoindolin-1-one], the IC50 was less than 0.01 µM.

Consider `Cc1cnc(Nc2cc(C)n(C)n2)nc1-c1c[nH]c2c(NC(=O)CN3CC[C@H](Oc4cc[nH]n4)C3)cccc12` [Example 116, (S)-2-(3-((1H-pyrazol-3-yl)oxy)pyrrolidin-1-yl)-N-(3-(2-((1,5-dimethyl-1H-pyrazol-3-yl)amino)-5-methylpyrimidin-4-yl)-1H-indol-7-yl)acetamide], for which the IC50 was 0.01 to 0.1 µM.

For the molecule `Cc1cnc(Nc2cc(C)n(C)n2)nc1-c1c[nH]c2c(N3Cc4c(NC(=O)c5ccccc5)cccc4C3=O)cccc12` [Example 294, N-(2-(3-(2-((1,5-dimethyl-1H-pyrazol-3-yl)amino)-5-methylpyrimidin-4-yl)-1H-indol-7-yl)-1-oxoisoindolin-4-yl)benzamide], the half-inhibitory concentration (IC50) fell in the range of 0.01 to 0.1 µM.
